Data from patent publication US20100144733A1, “Compounds, compositions and methods comprising heteroaromatic derivatives” (Institute for OneWorld Health, priority 2008, published 2010).
pIC50: −log10 of the molar value.

How the values were obtained:
[1] = molecular target: T1, CFTR (Homo sapiens, UniProt P13569); experiment: T84 assay (FLIPR membrane potential dye, forskolin/IBMX-stimulated CFTR channel activity); assay type: cell-based; details: oxadiazole-containing compounds (a series), average of at least 2 runs unless annotated n = 1, read-out: IC50
T1 construct: endogenous in cells; host or cells: T84 human colonic cells (ECACC)
T1 sequence (P13569 whole entry): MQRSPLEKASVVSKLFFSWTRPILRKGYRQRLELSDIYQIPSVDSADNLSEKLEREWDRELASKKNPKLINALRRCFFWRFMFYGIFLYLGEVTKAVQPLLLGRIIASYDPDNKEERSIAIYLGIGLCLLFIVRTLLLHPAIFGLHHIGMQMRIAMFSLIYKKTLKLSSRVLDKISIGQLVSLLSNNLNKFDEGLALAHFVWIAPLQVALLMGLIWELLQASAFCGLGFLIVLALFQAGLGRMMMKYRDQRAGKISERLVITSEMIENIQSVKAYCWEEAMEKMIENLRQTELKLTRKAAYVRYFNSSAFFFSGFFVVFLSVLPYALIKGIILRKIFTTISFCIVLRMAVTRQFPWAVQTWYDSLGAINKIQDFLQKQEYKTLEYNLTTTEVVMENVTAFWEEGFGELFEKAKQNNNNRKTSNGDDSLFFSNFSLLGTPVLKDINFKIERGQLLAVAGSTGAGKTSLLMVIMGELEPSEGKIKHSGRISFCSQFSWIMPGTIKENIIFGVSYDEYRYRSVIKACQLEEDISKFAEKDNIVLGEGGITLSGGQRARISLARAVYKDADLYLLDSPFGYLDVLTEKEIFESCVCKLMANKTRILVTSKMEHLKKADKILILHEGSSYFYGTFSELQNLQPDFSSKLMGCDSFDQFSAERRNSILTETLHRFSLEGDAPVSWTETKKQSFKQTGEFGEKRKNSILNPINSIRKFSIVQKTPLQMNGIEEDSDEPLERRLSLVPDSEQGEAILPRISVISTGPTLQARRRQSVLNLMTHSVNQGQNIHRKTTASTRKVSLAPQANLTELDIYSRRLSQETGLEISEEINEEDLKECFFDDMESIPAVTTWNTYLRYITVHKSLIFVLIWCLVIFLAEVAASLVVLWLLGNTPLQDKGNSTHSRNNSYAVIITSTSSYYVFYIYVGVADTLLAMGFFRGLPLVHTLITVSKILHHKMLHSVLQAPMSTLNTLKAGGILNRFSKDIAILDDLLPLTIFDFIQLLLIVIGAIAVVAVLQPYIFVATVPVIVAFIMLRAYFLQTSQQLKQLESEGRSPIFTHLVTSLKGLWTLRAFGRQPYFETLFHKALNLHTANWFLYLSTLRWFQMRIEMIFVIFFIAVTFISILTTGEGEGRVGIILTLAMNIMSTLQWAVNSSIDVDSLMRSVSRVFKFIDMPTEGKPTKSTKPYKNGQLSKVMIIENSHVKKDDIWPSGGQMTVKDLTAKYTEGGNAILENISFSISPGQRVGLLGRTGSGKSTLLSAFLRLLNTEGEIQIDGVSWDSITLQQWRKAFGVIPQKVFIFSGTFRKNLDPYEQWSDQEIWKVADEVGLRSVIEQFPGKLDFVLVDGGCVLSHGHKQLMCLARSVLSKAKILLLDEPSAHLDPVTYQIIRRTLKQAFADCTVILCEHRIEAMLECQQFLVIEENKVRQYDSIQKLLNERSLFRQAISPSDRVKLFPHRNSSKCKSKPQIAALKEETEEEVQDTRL
In short: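 Fluorescence from a membrane potential dye in T84 monolayers (HBSS with 10 mM Hepes) is followed each second for 150 s. Cells are exposed to test compound during the 45 min dye loading, then challenged with forskolin (10 μM) and IBMX (100 μM) to open CFTR. Inhibitors suppress the depolarization-driven fluorescence increase.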

[2] = system: cholera toxin (CTX) induced net fluid secretion in intestinal loops; experiment: animal or person; assay type: in vivo, mice (CD1 strain); details: Mus musculus; 4 hours; read-out: closed loop % inhibition @ 100 μg

SMILES	pIC50 [1]	inhibition in vivo at 100 µg/loop [2]
O=C(NCc1cccc(OC(F)(F)F)c1)c1noc(-c2cc(Br)c(O)c(Br)c2)n1 [65a, 5-(3,5-Dibromo-4-hydroxyphenyl)-N-(3-(trifluoromethoxy)benzyl)-1,2,4-oxadiazole-3-carboxamide]	5.82	94.6%
O=C(NCc1cc(F)cc(F)c1)c1noc(-c2cc(Cl)c(O)c(Cl)c2)n1 [112a, 5-(3,5-dichloro-4-hydroxyphenyl)-N-(3,5-difluorobenzyl)-1,2,4-oxadiazole-3-carboxamide]	4.95	51%
O=C(NCc1cccc(OC(F)(F)F)c1)c1noc(-c2cc(Cl)c(O)c(Cl)c2O)n1 [120a, 5-(3,5-dichloro-2,4-dihydroxyphenyl)-N-(3-(trifluoromethoxy)benzyl)-1,2,4-oxadiazole-3-carboxamide]	4.91	62.3%
